Source: patent publication US7205295B2, “Benzoxazin-3-ones and derivatives thereof as therapeutic agents” (Warner-Lambert Company LLC, priority 2002, dated 2007)

target: T1, PI3Kγ (p101/p110γ protein) (Homo sapiens, UniProt P48736); assay: PI3Kγ In Vitro Kinase Assay; assay type: biochemical; conditions: purified recombinant p101/p110γ with G protein β1/γ2 subunits; 20 μM ATP, 25 μM PIP2; 20 minutes at room temperature
T1 construct: HA; made in house; host or cells: Spodoptera frugiperda (Sf9) cells, baculovirus co-infection
T1 sequence (P48736 whole entry, species assumed): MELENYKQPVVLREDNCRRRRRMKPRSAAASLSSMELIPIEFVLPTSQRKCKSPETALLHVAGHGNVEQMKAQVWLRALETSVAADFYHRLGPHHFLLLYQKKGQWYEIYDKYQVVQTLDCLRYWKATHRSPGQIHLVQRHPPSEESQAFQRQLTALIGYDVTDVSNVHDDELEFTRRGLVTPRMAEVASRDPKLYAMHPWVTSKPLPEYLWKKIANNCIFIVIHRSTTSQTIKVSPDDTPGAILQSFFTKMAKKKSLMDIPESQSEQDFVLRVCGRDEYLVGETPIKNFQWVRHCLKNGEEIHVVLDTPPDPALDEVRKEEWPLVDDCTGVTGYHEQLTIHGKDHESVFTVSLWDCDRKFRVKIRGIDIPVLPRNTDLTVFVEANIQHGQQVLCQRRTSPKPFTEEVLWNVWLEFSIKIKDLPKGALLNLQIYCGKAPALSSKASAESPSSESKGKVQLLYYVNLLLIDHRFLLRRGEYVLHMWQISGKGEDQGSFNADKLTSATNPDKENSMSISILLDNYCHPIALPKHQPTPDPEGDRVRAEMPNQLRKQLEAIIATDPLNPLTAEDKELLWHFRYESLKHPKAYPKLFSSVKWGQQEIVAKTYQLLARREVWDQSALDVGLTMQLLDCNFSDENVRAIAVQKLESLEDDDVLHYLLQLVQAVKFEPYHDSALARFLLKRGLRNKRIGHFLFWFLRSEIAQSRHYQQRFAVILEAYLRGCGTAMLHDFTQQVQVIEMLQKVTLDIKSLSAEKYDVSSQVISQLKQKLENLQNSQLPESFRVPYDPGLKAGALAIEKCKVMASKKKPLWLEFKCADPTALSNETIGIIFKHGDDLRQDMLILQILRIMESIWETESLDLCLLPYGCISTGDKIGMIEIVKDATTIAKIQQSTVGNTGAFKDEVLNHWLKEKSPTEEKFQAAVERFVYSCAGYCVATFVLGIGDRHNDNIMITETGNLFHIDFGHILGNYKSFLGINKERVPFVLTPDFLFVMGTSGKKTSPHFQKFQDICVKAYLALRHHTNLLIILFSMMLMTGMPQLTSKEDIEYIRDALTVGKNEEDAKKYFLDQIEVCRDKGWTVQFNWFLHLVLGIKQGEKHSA
T1 sequence (Q8WYR1 whole entry partner, species assumed): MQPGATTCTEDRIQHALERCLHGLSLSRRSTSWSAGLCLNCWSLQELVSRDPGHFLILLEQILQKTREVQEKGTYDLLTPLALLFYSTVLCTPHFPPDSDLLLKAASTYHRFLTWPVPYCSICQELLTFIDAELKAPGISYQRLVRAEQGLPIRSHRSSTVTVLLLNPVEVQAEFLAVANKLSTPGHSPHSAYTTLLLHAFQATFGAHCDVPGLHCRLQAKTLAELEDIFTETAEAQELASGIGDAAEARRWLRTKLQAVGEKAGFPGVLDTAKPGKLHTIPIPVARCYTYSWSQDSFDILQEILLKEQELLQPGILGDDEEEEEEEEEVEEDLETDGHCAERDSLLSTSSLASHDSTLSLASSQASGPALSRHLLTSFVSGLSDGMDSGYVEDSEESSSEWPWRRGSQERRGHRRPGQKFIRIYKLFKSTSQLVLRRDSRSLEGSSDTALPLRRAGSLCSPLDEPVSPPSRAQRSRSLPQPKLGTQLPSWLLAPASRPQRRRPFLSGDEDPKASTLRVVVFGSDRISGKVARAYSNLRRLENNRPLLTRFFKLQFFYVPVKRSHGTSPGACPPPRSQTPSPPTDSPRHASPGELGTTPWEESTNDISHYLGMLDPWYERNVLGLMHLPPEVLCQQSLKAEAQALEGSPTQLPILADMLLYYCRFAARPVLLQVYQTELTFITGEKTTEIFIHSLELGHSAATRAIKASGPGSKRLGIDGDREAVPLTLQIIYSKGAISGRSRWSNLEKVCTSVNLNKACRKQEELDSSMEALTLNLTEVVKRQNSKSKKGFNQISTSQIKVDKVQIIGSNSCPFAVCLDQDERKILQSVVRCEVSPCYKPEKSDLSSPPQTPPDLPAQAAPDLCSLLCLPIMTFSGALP
Description: Spodtera frugiperda cells, grown in ESF921 media, were coinfected with baculovirus expressing a glu-tagged p101 and baculovirus expressing an HA-tagged p110γ, at a 3:1 ratio of p101 baculovirus to p110γ baculovirus. Sf9 cells were grown to 1×10^7 total cells/mL in 10L bioreactors and harvested 48-72 hours post infection. Samples of infected cells were then tested for expression of p101/p110γ PI3 kinase by immunoprecipitation and Western Blot analysis methods (see below). […] NaCl was added to 150 mM, and sodium cholate was added to 1% and mixed for another 45 minutes. The lysates were clarified by centrifugation for 25 minutes at 14,000 rpm. The lysates were then loaded over anti-glu-linked Protein-G Sepaharose beads (Covance Research Products, Richmond, Calif.) using 20 mL resin/50 g cell paste. […] PI3Kγ was eluted with 6 column volumes of wash buffer that contain 100 μg/mL of a peptide that competes for binding of the glu tag. […] The fractions were stored at -80° C. until further use. Spodtera frugiperda cells were coinfected with baculovirus expressing a glu-tagged G protein β1 and baculovirus expressing a G protein […] at a 1:1 ratio of glu-tagged G protein β1 baculovirus to G protein β2 baculovirus. Sf9 cells are grown in 10 L bioreactors and harvested 48-72 hours post infection. Samples of infected cells were tested for G protein β1/β2 expression by Western Blot analysis, as described below. Cell lysates were homogenized and loaded onto a column of glu-tagged beads as in Biological Example 1 and competed off the column with a glu peptide as described in Biological Example 1. The inhibitory properties of the compounds in Table 1 were assayed in an in vitro PI3K assay. In a 96-well polypropylene plate, each well was spotted with 2 μL of […] the desired final concentration of compound in DMSO. Purified recombinant p101/p110γ protein (0.03 μg; 2.7 nM) and G protein β1/γ2 subunits (0.09 μg; 57.7 nM) for each reaction was combined in the assay buffer (30 mM HEPES, 100 mM NaCl, 1 mM EGTA, and 1 mM DTT). ATP and [γ-^32P-ATP] (0.09 μCi) were added to this mixture so that the final ATP concentration in the reaction was 20 μM. Lipid micelles were formed by sonicating phosphatidylinositol-4,5-diphosphate (PIP2), phosphatidylethanolamine (PE), and Na-cholate in the assay buffer for 10 minutes, adding MgCL2 and incubating on ice for 20 minutes, for final concentrations of 25 μM PIP2, 300 [M PE, 0.02% Na-cholate, and 10 mM MgCl2 in the reaction. The reactions were started by adding equal volumes lipid and enzyme mixture in a total volume of 50 μL, allowed to run for 20 minutes at room temperature, and stopped with 100 μL 75 mM H3PO4. The lipid product was transferred to a glass fiber filter plate and washed with 75 mM H3PO4 several times. The presence of radioactive lipid product (PIP3) was measured by adding Wallac Optiphase mix to each well and counting in a Wallac 1450 Trilux plate reader (PerkinElmer Life Sciences Inc., Boston, Mass. 02118).

Row | SMILES | IC50 [nM]
1 | C[C@@H]1CCC[C@H](C)N1Cc1ccc(CN2C(=O)COc3ccc(C=C4SC(=S)NC4=O)cc32)cc1 [Example 27, 4-[4-((2S, 6R)-2,6-Dimethyl-piperidin-1-ylmethyl)-benzyl]-6-(4-oxo-2-thioxo-thiazolidin-5-ylidenemethyl)-4H-1,4-benzoxazin-3-one] | 3
2 | Cc1cc(C)cc(CN2C(=O)COc3c(C)cc(C=C4SC(=S)NC4=O)cc32)c1 [Example 28, 4-(3,5-Dimethyl-benzyl)-8-methyl-6-(4-oxo-2-thioxo-thiazolidin-5-ylidenemethyl)-4H-1,4-benzoxazin-3-one] | 3
3 | O=C1NC(=S)SC1=Cc1ccc2c(c1)N(Cc1cc(C(F)(F)F)cc(C(F)(F)F)c1)C(=O)CO2 [Example 29, 4-(3,5-Bis-trifluoromethyl-benzyl)-6-(4-oxo-2-thioxo-thiazolidin-5-ylidenemethyl)-4H-1,4-benzoxazin-3-one] | 31
4 | Cc1cc(C)cc(CCN2C(=O)COc3ccc(C=C4SC(=S)NC4=O)cc32)c1 [Example 30, 4-[2-(3,5-Dimethylphenyl)-ethyl]-6-(4-oxo-2-thioxo-thiazolidin-5-ylidenemethyl)-4H-1,4-benzoxazin-3-one] | 2
5 | Cc1cccc(C)c1CN1C(=O)COc2ccc(C=C3SC(=S)NC3=O)cc21 [Example 31, 4-(2,6-Dimethyl-benzyl)-6-(4-oxo-2-thioxo-thiazolidin-5-ylidenemethyl)-4H-1,4-benzoxazin-3-one] | 83
6 | CC(C)(C)c1cc(CN2C(=O)COc3ccc(C=C4SC(=S)NC4=O)cc32)cc(C(C)(C)C)c1 [Example 32, 4-(3,5-Di-tert-butyl-benzyl)-6-(4-oxo-2-thioxo-thiazolidin-5-ylidenemethyl)-4H-1,4-benzoxazin-3-one] | 12
7 | CN1CCN(Cc2ccc(CN3C(=O)COc4ccc(C=C5SC(=S)NC5=O)cc43)cc2)CC1 [Example 33, 4-[4-(4-Methyl-piperazin-1-ylmethyl)-benzyl]-6-(4-oxo-2-thioxo-thiazolidin-5-ylidenemethyl)-4H-1,4-benzoxazin-3-one] | 4
8 | O=C1NC(=S)SC1=Cc1ccc2c(c1)N(CCCc1ccccc1)C(=O)CO2 [Example 34, 6-(4-Oxo-2-thioxo-thiazolidin-5-ylidenemethyl)-4-(3-phenyl-propyl)-4H-1,4-benzoxazin-3-one] | 3
9 | O=C1NC(=S)SC1=Cc1ccc2c(c1)N(Cc1ccc(CN3CCN(c4ccccc4)CC3)cc1)C(=O)CO2 [Example 35, 6-(4-Oxo-2-thioxo-thiazolidin-5-ylidenemethyl)-4-[4-(4-phenyl-piperazin-1-ylmethyl)-benzyl]-4H-1,4-benzoxazin-3-one] | 12
10 | CC(C)(C)c1ccc(CN2C(=O)COc3ccc(C=C4SC(=S)NC4=O)cc32)cc1 [Example 36, 4-(4-tert-Butyl-benzyl)-6-(4-oxo-2-thioxo-thiazolidin-5-ylidenemethyl)-4H-1,4-benzoxazin-3-one] | 2
11 | C[C@@H]1Oc2ccc(C=C3SC(=S)NC3=O)cc2N(Cc2cc(C(C)(C)C)cc(C(C)(C)C)c2)C1=O [Example 37, (S)-4-(3,5-Di-tert-butyl-benzyl)-2-methyl-6-(4-oxo-2-thioxo-thiazolidin-5-ylidenemethyl)-4H-1,4-benzoxazin-3-one] | 1620
12 | O=C1NC(=S)SC1=Cc1ccc2c(c1)N(Cc1cccc(-c3ccccc3)c1)C(=O)CO2 [Example 38, 4-Biphenyl-3-ylmethyl-6-(4-oxo-2-thioxo-thiazolidin-5-ylidenemethyl)-4H-1,4-benzoxazin-3-one] | 6
13 | Cc1cc(CN2C(=O)COc3ccc(C=C4SC(=S)NC4=O)cc32)cc(C)c1CN1CCOCC1 [Example 39, 4-(3,5-Dimethyl-4-morpholin-4-ylmethyl-benzyl)-6-(4-oxo-2-thioxo-thiazolidin-5-ylidenemethyl)-4H-1,4-benzoxazin-3-one] | 335
14 | O=C1NC(=S)SC1=Cc1ccc2c(c1)N(Cc1cccc(I)c1)C(=O)CO2 [Example 40, 4-(3-Iodo-benzyl)-6-(4-oxo-2-thioxo-thiazolidin-5-ylidenemethyl)-4H-1,4-benzoxazin-3-one] | 15
15 | O=C1NC(=S)SC1=Cc1ccc2c(c1)N(Cc1cc(Br)cc(I)c1)C(=O)CO2 [Example 41, 4-(3-Bromo-5-iodo-benzyl)-6-(4-oxo-2-thioxo-thiazolidin-5-ylidenemethyl)-4H-1,4-benzoxazin-3-one] | 61
16 | Cc1cc(CN2CCOCC2)cc(CN2C(=O)COc3ccc(C=C4SC(=S)NC4=O)cc32)c1 [Example 42, 4-(3-Methyl-5-morpholin-4-ylmethyl-benzyl)-6-(4-oxo-2-thioxo-thiazolidin-5-ylidenemethyl)-4H-1,4-benzoxazin-3-one] | 41
17 | O=C1NC(=S)SC1=Cc1ccc2c(c1)N(Cc1cc(-c3ccccc3)cc(-c3ccccc3)c1)C(=O)CO2 [Example 43, 6-(4-Oxo-2-thioxo-thiazolidin-5-ylidenemethyl)-4-1,1′,3′,1″-terphenyl-5′-ylmethyl-4H-1,4-benzoxazin-3-one] | 1440
18 | O=C1NC(=S)SC1=Cc1ccc2c(c1)N(Cc1cc(OS(=O)(=O)C(F)(F)F)cc(OS(=O)(=O)C(F)(F)F)c1)C(=O)CO2 [Example 44, Trifluoro-methanesulfonic acid 3-[3-oxo-6-(4-oxo-2-thioxo-thiazolidin-5-ylidenemethyl)-2,3-dihydro-1,4-benzoxazin-4-ylmethyl]-5-trifluoromethanesulfonyloxy-phenyl ester] | 265
19 | CC(C)(C)c1cc(CN2C(=O)COc3ccc(C=C4SC(=S)NC4=O)cc32)cc(C(C)(C)C)n1 [Example 45, 4-(2,6-Di-tert-butyl-pyridin-4-ylmethyl)-6-(4-oxo-2-thioxo-thiazolidin-5-ylidenemethyl)-4H-1,4-benzoxazin-3-one] | 336
20 | O=C1NC(=S)SC1=Cc1cc(F)c2c(c1)N(Cc1ccccc1)C(=O)CO2 [Example 46, 4-Benzyl-8-fluoro-6-(4-oxo-2-thioxo-thiazolidin-5-ylidenemethyl)-4H-1,4-benzoxazin-3-one] | 8
21 | CC(C)(C)c1cc(CN2C(=O)COc3c(Cl)cc(C=C4SC(=S)NC4=O)cc32)cc(C(C)(C)C)c1 [Example 47, 8-Chloro-4-(3,5-di-tert-butyl-benzyl)-6-(4-oxo-2-thioxo-thiazolidin-5-ylidenemethyl)-4H-1,4-benzoxazin-3-one] | 320
22 | CN1CCN(Cc2cccc(CN3C(=O)COc4ccc(C=C5SC(=S)NC5=O)cc43)c2)CC1 [Example 48, 4-[3-(4-Methyl-piperazin-1-ylmethyl)-benzyl]-6-(4-oxo-2-thioxo-thiazolidin-5-ylidenemethyl)-4H-1,4-benzoxazin-3-one] | 42
23 | O=C1COc2c(Cl)cc(C=C3SC(=S)NC3=O)cc2N1 [Example 49, 8-Chloro-6-(4-oxo-2-thioxo-thiazolidin-5-ylidenemethyl)-4H-1,4-benzoxazin-3-one] | 61
24 | O=C1NC(=S)SC1=Cc1cc(Cl)c2c(c1)N(Cc1ccccc1)C(=O)CO2 [Example 50, 4-Benzyl-8-chloro-6-(4-oxo-2-thioxo-thiazolidin-5-ylidenemethyl)-4H-1,4-benzoxazin-3-one] | 10
25 | COc1cc(C=C2SC(=S)NC2=O)cc2c1OCC(=O)N2Cc1cc(C(C)(C)C)cc(C(C)(C)C)c1 [Example 51, 4-(3,5-Di-tert-butyl-benzyl)-8-methoxy-6-(4-oxo-2-thioxo-thiazolidin-5-ylidenemethyl)-4H-1,4-benzoxazin-3-one] | 165
